Measurements as given in ChEMBL document CHEMBL1155531, “Structure guided design of 5-arylindazole glucocorticoid receptor agonists and antagonists” (J Med Chem, 2010).
pEC50, pIC50: −log10 of the molar value.

Experiments:
[1] = molecular target: T1, Glucocorticoid receptor (Homo sapiens, UniProt P04150); assay: Activity at GR in human A549 cells by NF-kappaB transrepression assay; format: cell-based
T1 sequence (P04150 whole entry): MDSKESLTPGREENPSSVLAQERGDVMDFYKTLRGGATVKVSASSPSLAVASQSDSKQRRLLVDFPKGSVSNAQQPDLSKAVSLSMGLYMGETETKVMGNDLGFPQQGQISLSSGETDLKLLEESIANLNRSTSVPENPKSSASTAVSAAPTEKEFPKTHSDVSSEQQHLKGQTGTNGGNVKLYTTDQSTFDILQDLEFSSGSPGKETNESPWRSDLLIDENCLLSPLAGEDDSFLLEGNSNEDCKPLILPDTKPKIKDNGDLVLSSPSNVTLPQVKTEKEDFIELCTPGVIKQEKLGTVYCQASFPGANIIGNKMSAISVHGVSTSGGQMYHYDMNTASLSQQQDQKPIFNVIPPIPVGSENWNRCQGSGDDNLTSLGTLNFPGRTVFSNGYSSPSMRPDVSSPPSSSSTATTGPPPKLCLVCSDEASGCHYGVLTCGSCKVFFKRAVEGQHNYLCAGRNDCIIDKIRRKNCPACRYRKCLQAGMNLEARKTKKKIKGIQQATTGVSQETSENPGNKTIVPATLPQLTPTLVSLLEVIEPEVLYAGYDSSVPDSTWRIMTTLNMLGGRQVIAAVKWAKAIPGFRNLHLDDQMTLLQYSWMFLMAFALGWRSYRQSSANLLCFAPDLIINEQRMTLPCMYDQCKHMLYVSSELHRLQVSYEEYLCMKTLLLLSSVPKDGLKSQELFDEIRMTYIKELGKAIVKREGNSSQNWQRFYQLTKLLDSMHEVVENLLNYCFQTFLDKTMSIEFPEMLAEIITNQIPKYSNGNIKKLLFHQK

[2] = Plasma clearance in CD rat at 1 mg/kg, po and 1 mg/kg, iv; format: ADME, organism-based
[3] = Toxicity in human skeletal muscle cells assessed as increase in glutamine synthase mRNA level after 18 hrs by PCR
[4] = Elimination half life in CD rat at 1 mg/kg, po and 1 mg/kg, iv; format: ADME, organism-based; conditions: in vivo, read-out: beta t1/2 (converted)
[5] = molecular target: T2, Androgen receptor (Homo sapiens, UniProt P10275)
T2 sequence (P10275 whole entry): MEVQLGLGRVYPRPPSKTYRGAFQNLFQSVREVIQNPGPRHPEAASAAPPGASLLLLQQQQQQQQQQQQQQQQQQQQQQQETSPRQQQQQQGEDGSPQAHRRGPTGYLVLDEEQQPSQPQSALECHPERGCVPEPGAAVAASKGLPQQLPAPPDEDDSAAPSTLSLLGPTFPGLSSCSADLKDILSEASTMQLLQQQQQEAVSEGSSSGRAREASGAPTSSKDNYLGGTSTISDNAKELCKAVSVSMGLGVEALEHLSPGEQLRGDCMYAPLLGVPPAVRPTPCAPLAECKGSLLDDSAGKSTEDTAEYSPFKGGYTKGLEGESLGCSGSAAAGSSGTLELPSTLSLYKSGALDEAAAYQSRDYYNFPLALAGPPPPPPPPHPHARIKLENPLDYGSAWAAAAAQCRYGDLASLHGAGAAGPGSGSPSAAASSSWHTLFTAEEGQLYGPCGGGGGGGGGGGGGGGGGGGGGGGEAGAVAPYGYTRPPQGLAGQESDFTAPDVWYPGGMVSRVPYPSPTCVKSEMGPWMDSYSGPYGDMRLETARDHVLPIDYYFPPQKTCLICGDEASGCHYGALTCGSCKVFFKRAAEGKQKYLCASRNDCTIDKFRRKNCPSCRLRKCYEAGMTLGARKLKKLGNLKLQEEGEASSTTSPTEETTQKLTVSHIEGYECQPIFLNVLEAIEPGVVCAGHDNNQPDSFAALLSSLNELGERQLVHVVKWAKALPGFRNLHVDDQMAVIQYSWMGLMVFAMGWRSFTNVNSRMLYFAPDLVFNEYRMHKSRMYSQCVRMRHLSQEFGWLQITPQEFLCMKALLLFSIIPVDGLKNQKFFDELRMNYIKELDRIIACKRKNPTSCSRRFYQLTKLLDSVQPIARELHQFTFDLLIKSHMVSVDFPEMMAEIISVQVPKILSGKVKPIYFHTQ

[6] = molecular target: T1, Glucocorticoid receptor; assay: Displacement of fluorescent-labeled Dexamethasone from GR by fluorescent polarization assay
[7] = test system: Mus musculus; assay: Inhibition of IL1-induced circulating IL6 release in mouse at 0.1 mg/kg, po; format: functional
[8] = Oral bioavailability in DBA1 mouse at 1 mg/kg; format: ADME, organism-based; conditions: in vivo
[9] = Plasma concentration in mouse bearing mouse NIH-3T3 cells integrated with MMTV reporter gene at 1 mg/kg, po after 1 hr; format: ADME, organism-based, NIH3T3; set-up: dose 1 mg/kg, route oral
[10] = molecular target: T1, Glucocorticoid receptor; assay: Agonist activity at GR in human A549 cells transfected with luciferase gene linked to MMTV promoter assessed as luciferase transactivation activity after 24 hrs; format: functional, cell-based
[11] = Tmax in CD rat at 1 mg/kg, po; format: ADME, organism-based; set-up: dose 1 mg/kg, route oral; conditions: in vivo
[12] = Volume of distribution at steady state in DBA1 mouse at 1 mg/kg, po and 1 mg/kg, iv; format: ADME, organism-based; conditions: in vivo, read-out: Vdss
[13] = test system: Mus musculus; assay: Inhibition of IL1-induced circulating IL6 release in mouse at 1 mg/kg, po; format: functional
[14] = Relative plasma concentration in mouse assessed as ratio of plasma concentration in mouse at 10 mg/kg, po to IC50 for NF-kappaB transrepression activity in A549 cells expressing MMTV reporter gene; format: ADME, organism-based; set-up: dose 10 mg/kg, route oral; conditions: in vivo
[15] = Relative plasma concentration in mouse assessed as ratio of plasma concentration in mouse at 1 mg/kg, po to IC50 for NF-kappaB transrepression activity in A549 cells expressing MMTV reporter gene; format: ADME, organism-based; set-up: dose 1 mg/kg, route oral; conditions: in vivo
[16] = Antiinflammatory activity in human primary synovial fibroblasts assessed as inhibition of IL1-induced IL8 release after 18 hrs by MSD technology; format: functional
[17] = Tmax in DBA1 mouse at 1 mg/kg, po; format: ADME, organism-based; set-up: dose 1 mg/kg, route oral; conditions: in vivo
[18] = Volume of distribution at steady state in CD rat at 1 mg/kg, po and 1 mg/kg, iv; format: ADME, organism-based; conditions: in vivo, read-out: Vdss
[19] = Plasma concentration in mouse bearing mouse NIH-3T3 cells integrated with MMTV reporter gene at 100 mg/kg, po after 1 hr; format: ADME, organism-based, NIH3T3; set-up: dose 100 mg/kg, route oral
[20] = test system: Mus musculus; assay: Inhibition of IL1-induced circulating IL6 release in mouse at 10 mg/kg, po; format: functional
[21] = Antiinflammatory activity in human primary synovial fibroblasts assessed as inhibition of IL1-induced IL6 release after 18 hrs by MSD technology; format: functional
[22] = Plasma concentration in mouse bearing mouse NIH-3T3 cells integrated with MMTV reporter gene at 0.1 mg/kg, po after 1 hr; format: ADME, organism-based, NIH3T3; set-up: dose 0.1 mg/kg, route oral
[23] = Relative plasma concentration in mouse assessed as ratio of plasma concentration in mouse at 0.1 mg/kg, po to IC50 for NF-kappaB transrepression activity in A549 cells expressing MMTV reporter gene; format: ADME, organism-based; set-up: dose 0.1 mg/kg, route oral; conditions: in vivo
[24] = Plasma clearance in DBA1 mouse at 1 mg/kg, po and 1 mg/kg, iv; format: ADME, organism-based

In the case of `O=S(=O)(Cc1ccccc1)Nc1ccc(-c2ccc3c(cnn3-c3ccc(F)cc3)c2)c(C(F)(F)F)c1`, the pIC50 [1] was 8.00, the clearance [2] was 8 mL/min/kg and the Activity [3] was “Toxic”. For the same compound, the half-life [4] was 3.3 h, the pIC50 [5] was < 5.00 and the pIC50 [6] was 8.00. The inhibition in vivo at 0.1 mg/kg [7] was 0%, the bioavailability [8] was > 51% and the concentration at 1 h [9] was 290 nM. For the same compound, the pEC50 [10] was 7.70, the Tmax [11] was 6 h and the Vd [12] was 1.8 L/kg. The inhibition in vivo at 1 mg/kg [13] was 0%, the “fold change (FC)” value [14] was 273 and the “fold change (FC)” value [15] was 29. It also gave a pIC50 [16] of 8.70, a Tmax [17] of 6 h and a Vd [18] of 2 L/kg. It also gave a concentration at 1 h [19] of 12100 nM, an inhibition in vivo at 10 mg/kg [20] of 44% and a pIC50 [21] of 8.50. For the same compound, the concentration at 1 h [22] was 25 nM, the “fold change (FC)” value [23] was 2.5 and the clearance [24] was 8 mL/min/kg.
